Test results as given in patent US20050250850A1, “Amino acid composition promoting collagen synthesis” (Ajinomoto Co., Inc., priority 2004, published 2005).

Tested on: collagen synthesis in skin
Assay: Rate of collagen synthesis in rat skin (incorporation of stable isotope-labelled L-phenylalanine into collagen)
Type: in vivo, SD (IGS) male rats
Conditions: rats fed protein-free food for one week, continuous administration into the jugular vein for approx. three and a half hours, neutral-salt-soluble newly synthesized collagen, t-test vs saline, * p<0.05, FIG. 1
Excerpt: SD (IGS) male rats consisting of 4 to 6 individuals per group were fed protein-free food (0% casein) for one week to groups of, after which the rats were used in the following experiments.
The administration fluids were each administered continuously into the jugular vein for approximately three and a half hours. Stable isotope-labelled L-phenylalanine was used to determine the rate of collagen synthesis by measuring the labelled percentage of stable isotope-labelled L-phenylalanine that had been incorporated in collagen protein within a fixed period of time. Skin was used as the tissue, and fractions of newly synthesized collagen dissoluble in a neutral salt solution were used as the collagen.
The group administered with physiological saline was used as the control, and assay was conducted by t-test. The symbol * in the figure represents p<0.05. […] Rate of collagen synthesis=ΔEt/ΔEf/ΔT (1) • ΔEt: labelled percentage of the phenylalanine in collagen fractions per unit time • ΔEf: labelled percentage of the free phenylalanine in the skin tissue fluid per unit time • ΔT: unit time

NC(=O)CC[C@H](N)C(=O)O [L-glutamine]
rate of collagen synthesis in comparison with the group administered with physiological saline: enhancement from saline was not observed
